Laboratory results as given in US20250059207A1, “6,6-FUSED HETEROCYCLIC COMPOUNDS AS METTL3 INHIBITORS” (858 Therapeutics, Inc., priority 2021, published 2025).

Tested on: MOLM-13 cells
Assay: Viability assay in MOLM-13 cells (CellTiter-Glo 2.0)
Format: cell-based, human
Settings: Homo sapiens, MOLM-13, 72 h, read-out: MOLM-13 IC50 (cell viability)
Protocol: Effects of test compounds on the proliferation and viability of human AML cells was evaluated using the MOLM-13 cell line (AddexBio Technologies cat. no. C0003003). […] Test compounds or controls (Bortezomib or DMSO) diluted in 2% DMSO/media were added to each well for final concentrations of 0.2% DMSO and 0.1-1 μM Bortezomib. The cells were incubated for 72 hours at 37° C. and 5% CO2. At the end of the 72 hour incubation, plates were removed from the incubator, cooled to room temperature and equal volume of CellTiter-Glo 2.0 (Promega) added to each well. After mixing and incubating the plate at room temperature for 10 minutes the luminescence was read using a plate reader. […] Concentration-response-curves and IC50 values were generated using Collaborative Drug Discovery software.

SMILES	IC50
O=c1c2cncc(N3CC4(CCOC4)C3)c2ccn1Cc1cn2cc(CNCC34CC(F)(C3)C4)ccc2n1 [Compound 151, 2-((6-((((3-fluorobicyclo[1.1.1]pentan-1-yl)methyl)amino)methyl)imidazo[1,2-a]pyridin-2-yl)methyl)-5-(6-oxa-2-azaspiro[3.4]octan-2-yl)-2,7-naphthyridin-1(2H)-one]	< 1 µM
O=c1c2cncc(-c3ccccc3)c2ccn1Cc1cn2cc(CNC3(c4ccccc4)CC3)ccc2n1 [Compound 78, 5-phenyl-2-((6-(((1-phenylcyclopropyl)amino)methyl)imidazo[1,2-a]pyridin-2-yl)methyl)-2,7-naphthyridin-1(2H)-one]	1 to 10 µM

Same assay, conditions: MOLM-13 human AML cells, 72 hours, CellTiter-Glo 2.0; read-out: MOLM-13 IC50 (cell viability)

SMILES	IC50
O=c1c2cncc(N3CC4(COC4)C3)c2cnn1Cc1cn2cc(CNCC34CC(F)(C3)C4)ccc2n1 [Compound 157, 3-[(6-{[({3-fluorobicyclo[1.1.1]pentan-1-yl}methyl)amino]methyl}imidazo[1,2-a]pyridin-2-yl)methyl]-8-{2-oxa-6-azaspiro[3.3]heptan-6-yl}pyrido[3,4-d]pyridazin-4-one]	1 to 10 µM
O=c1c2cncc(N3CC4(CCCOC4)C3)c2ccn1Cc1cn2cc(CNCC3CC(F)C3)ccc2n1 (stereo not drawn) [Compound 145, 2-{[6-({[(3-fluorocyclobutyl)methyl]amino}methyl)imidazo[1,2-a]pyridin-2-yl]methyl}-5-{6-oxa-2-azaspiro[3.5]nonan-2-yl}-1,2-dihydro-2,7-naphthyridin-1-one]	1 to 10 µM
CC1(C)CCN(Cc2ccc3nc(Cn4ccc5c(N6CC7(CCNCC7)C6)cncc5c4=O)cn3c2)CC1 [Compound 119, 5-{2,7-diazaspiro[3.5]nonan-2-yl}-2-({6-[(4,4-dimethylpiperidin-1-yl)methyl]imidazo[1,2-a]pyridin-2-yl}methyl)-1,2-dihydro-2,7-naphthyridin-1-one]	1 to 10 µM
Cc1ccc2nc(Cn3ccc4c(-c5c(C)cccc5F)cncc4c3=O)cn2c1 [Compound 30, 5-(2-fluoro-6-methylphenyl)-2-((6-methylimidazo[1,2-a]pyridin-2-yl)methyl)-2,7-naphthyridin-1(2H)-one]	> 10 µM
O=c1c2cncc(N3CC4(CCOCC4)C3)c2ccn1Cc1cn2cc(CN3CCC(C(F)(F)F)CC3)ccc2n1 [Compound 132, 5-{7-oxa-2-azaspiro[3.5]nonan-2-yl}-2-[(6-{[4-(trifluoromethyl)piperidin-1-yl]methyl}imidazo[1,2-a]pyridin-2-yl)methyl]-1,2-dihydro-2,7-naphthyridin-1-one]	1 to 10 µM

Further lines, results first:

IC50	SMILES
< 1 µM	O=c1c2cncc(N3CC4(CCCOC4)C3)c2ccn1Cc1cn2cc(CNCC34CC(F)(C3)C4)ccc2n1 [Compound 153, 2-[(6-{[({3-fluorobicyclo[1.1.1]pentan-1-yl}methyl)amino]methyl}imidazo[1,2-a]pyridin-2-yl)methyl]-5-{6-oxa-2-azaspiro[3.5]nonan-2-yl}-1,2-dihydro-2,7-naphthyridin-1-one]
1 to 10 µM	O=c1c2cncc(N3CC4(CCC(F)(F)CC4)C3)c2ccn1Cc1cn2cc(CNCC3CC(F)C3)ccc2n1 (stereo not drawn) [Compound 146, 5-{7,7-difluoro-2-azaspiro[3.5]nonan-2-yl}-2-{[6-({[(3-fluorocyclobutyl)methyl]amino}methyl)imidazo[1,2-a]pyridin-2-yl]methyl}-1,2-dihydro-2,7-naphthyridin-1-one]
1 to 10 µM	CCNc1ccc2ccc(-c3ccc(Cn4ccc5c(-c6ccccc6)cncc5c4=O)cc3)cc2n1 [Compound 93, 2-(4-(2-(ethylamino)quinolin-7-yl)benzyl)-5-phenyl-2,7-naphthyridin-1(2H)-one]
> 10 µM	CN(C)CC1CN(c2cncc3c(=O)n(Cc4cn5cc(CN6CCC(C)(C)CC6)ccc5n4)ccc23)C1 [Compound 125, 5-{3-[(dimethylamino)methyl]azetidin-1-yl}-2-({6-[(4,4-dimethylpiperidin-1-yl)methyl]imidazo[1,2-a]pyridin-2-yl}methyl)-1,2-dihydro-2,7-naphthyridin-1-one]
1 to 10 µM	O=c1c2cncc(C3CC3)c2ccn1Cc1cn2cc(CNCC3CCC3)ccc2n1 [Compound 88, 2-((6-(((cyclobutylmethyl)amino)methyl)imidazo[1,2-a]pyridin-2-yl)methyl)-5-cyclopropyl-2,7-naphthyridin-1(2 h)-one]
